Laboratory results taken from ChEMBL document CHEMBL1201862, “PubChem BioAssay data set” (2004).
Calls of active or inactive are those of the source.

Experiments:
[1] = biological target: T1, Bcl-2-related protein A1 (Mus musculus, UniProt Q07440); test: Bfl-1 inhibitors blocking BH3 peptide binding, confirmation, biochemical, TR-FRET, mouse Bfl-1 (AID 621);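 further: TR-FRET binding of GST-Bfl-1 to FITC-labelled Bid peptide via terbium antibody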
T1 sequence (Q07440 whole entry): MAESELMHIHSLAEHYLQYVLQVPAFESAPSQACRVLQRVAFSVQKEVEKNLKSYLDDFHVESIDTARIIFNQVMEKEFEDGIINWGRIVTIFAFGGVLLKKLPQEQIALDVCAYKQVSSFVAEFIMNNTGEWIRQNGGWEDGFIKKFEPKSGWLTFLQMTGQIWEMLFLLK

[2] = biological target: Glyceraldehyde-3-phosphate dehydrogenase (Homo sapiens, UniProt P04406)
Glyceraldehyde-3-phosphate dehydrogenase, sequence (P04406 whole entry): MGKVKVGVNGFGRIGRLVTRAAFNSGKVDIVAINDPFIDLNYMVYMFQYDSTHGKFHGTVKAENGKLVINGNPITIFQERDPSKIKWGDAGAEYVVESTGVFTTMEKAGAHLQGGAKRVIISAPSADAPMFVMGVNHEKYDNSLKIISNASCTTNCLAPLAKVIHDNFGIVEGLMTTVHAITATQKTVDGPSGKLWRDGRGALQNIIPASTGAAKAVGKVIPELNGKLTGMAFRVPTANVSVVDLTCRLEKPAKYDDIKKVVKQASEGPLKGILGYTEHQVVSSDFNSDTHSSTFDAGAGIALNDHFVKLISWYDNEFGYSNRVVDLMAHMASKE

[3] = biological target: T1, Bcl-2-related protein A1; test: Bfl-1 binding inhibitors, SAR follow-up, biochemical, fluorescence polarization (AID 1070)
[4] = biological target: T2, Cytochrome P450 1A2 (Homo sapiens, UniProt P05177);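 further: PubChem cytochrome P450 panel assay, CYP1A2 panel member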
T2 sequence (P05177 whole entry): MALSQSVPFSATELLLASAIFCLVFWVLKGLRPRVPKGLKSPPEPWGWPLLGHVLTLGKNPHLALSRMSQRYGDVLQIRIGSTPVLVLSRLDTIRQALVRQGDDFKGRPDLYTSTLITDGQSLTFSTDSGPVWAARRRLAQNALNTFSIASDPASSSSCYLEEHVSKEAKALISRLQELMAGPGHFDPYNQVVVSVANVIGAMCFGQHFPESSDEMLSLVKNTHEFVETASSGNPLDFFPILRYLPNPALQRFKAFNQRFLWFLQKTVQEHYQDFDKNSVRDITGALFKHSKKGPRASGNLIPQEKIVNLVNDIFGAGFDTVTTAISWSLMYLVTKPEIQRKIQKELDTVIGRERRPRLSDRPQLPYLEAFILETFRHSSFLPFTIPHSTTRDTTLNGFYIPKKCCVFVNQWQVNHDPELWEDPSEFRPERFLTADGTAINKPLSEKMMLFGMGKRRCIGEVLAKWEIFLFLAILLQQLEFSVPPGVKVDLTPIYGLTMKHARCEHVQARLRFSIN

[5] = biological target: Mitogen-activated protein kinase 10 (Homo sapiens, UniProt P53779); test: Dose response biochemical screening assay for inhibitors of c-Jun N-Terminal Kinase 3 (JNK3). [Related pubchem assays: 746 ]
Mitogen-activated protein kinase 10, sequence (P53779 whole entry): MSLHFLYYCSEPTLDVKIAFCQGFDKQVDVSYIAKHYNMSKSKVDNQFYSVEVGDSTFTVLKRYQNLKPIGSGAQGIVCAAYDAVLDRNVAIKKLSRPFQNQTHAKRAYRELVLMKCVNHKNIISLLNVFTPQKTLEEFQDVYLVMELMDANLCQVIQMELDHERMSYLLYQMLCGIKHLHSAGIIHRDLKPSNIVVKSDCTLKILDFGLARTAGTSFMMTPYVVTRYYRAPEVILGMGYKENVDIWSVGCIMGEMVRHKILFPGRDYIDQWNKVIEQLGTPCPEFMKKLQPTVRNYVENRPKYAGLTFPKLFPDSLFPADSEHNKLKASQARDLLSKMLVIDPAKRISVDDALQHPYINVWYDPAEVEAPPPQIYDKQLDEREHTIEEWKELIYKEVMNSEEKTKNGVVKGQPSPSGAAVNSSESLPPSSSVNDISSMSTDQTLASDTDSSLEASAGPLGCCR

[6] = biological target: Cytochrome P450 2C19 (Homo sapiens, UniProt P33261); test: Cytochrome panel assay with activity outcomes. Panel member name: p450-cyp2c19 Compounds with AC50 equal or less than 10 uM are considered active; type: functional; conditions: read-out: AC50
Cytochrome P450 2C19, sequence (P33261 whole entry): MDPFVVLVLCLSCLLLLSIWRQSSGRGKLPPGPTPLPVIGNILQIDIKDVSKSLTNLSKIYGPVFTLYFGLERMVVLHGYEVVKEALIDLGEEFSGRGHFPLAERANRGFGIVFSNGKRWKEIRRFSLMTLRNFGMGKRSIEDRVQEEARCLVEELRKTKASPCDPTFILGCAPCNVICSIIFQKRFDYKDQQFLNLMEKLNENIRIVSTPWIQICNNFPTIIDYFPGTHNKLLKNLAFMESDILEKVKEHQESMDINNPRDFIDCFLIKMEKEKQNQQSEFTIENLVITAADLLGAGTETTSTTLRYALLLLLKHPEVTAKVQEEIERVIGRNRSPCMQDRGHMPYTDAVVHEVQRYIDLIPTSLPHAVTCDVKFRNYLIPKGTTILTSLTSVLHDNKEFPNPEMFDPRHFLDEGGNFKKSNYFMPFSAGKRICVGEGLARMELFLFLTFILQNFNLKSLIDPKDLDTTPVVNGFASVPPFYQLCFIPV

[7] = Luminescence Cell-Based Dose Response to Identify Activators of 5'UTR Stem-Loop Driven Prion Protein mRNA Translation in H4-C Neuroglioblastoma Cells. [Related pubchem assays: 1829 (Project Summary), 1814 (Primary HTS)]; type: functional
[8] = Luminescence Cell-Based Dose Response HTS to Identify Activators of Luciferase Translation or Activity in H4 […] Cells. [Related pubchem assays: 1829 (Project Summary), 1814 (Primary HTS)]; type: functional
[9] = Luminescence Cell-Based Dose Response to Identify Activators of Luciferase Translation or Activity in H4-C Neuroglioblastoma Cells. [Related pubchem assays: 1829 (Project Summary), 1814 (Primary HTS)]; type: functional
[10] = Luminescence Cell-Based Dose Confirmation to Identify Activators of 5'UTR Stem-Loop Driven Alpha-Synuclein mRNA Translation in H4 Neuroglioblastoma Cells. [Related pubchem assays: 1829 (Project Summary), 1814 (Primary HTS)]; type: functional
[11] = system: H4; test: Luminescence Cell-Based Dose Response HTS to Identify Activators of 5'UTR Stem-Loop Driven Prion Protein mRNA Translation in H4 Neuroglioblastoma Cells. [Related pubchem assays: 1829 (Project Summary), 1814 (Primary HTS)]; type: functional; conditions: Homo sapiens
[12] = Luminescence Cell-Based Dose Confirmation HTS to Identify Activators of 5'UTR Stem-Loop Driven Alpha-Synuclein mRNA Translation in H4 Neuroglioblastoma Cells. [Related pubchem assays: 1829 (Project Summary), 1814 (Primary HTS)]; type: functional
[13] = P. falciparum Dd2 growth inhibitors, dose response, SYBR Green, dry powder samples, set 9 (AID 1159568); type: functional, cell-based
[14] = control 3'UTR Renilla luciferase suppression, dose response, counter-screen for Shn3 inhibitor project, cell-based, Clone20-Shn3RL, cherry-picked (AID 624133); type: functional
[15] = system: Vero; test: host cell cytotoxicity of antiviral hits, dose response, cytotoxicity control for West Nile virus antiviral project, secondary assay (AID 1650); type: functional; conditions: Chlorocebus sabaeus
[16] = HepG2 cell cytotoxicity, dose response, cytotoxicity control for Shn3 inhibitor project, CellTiter-Glo, cherry-picked (AID 624134); type: functional, cell-based
[17] = Shn3 3'UTR reporter inhibitors, dose response, cell-based, Clone20 osteoblasts, firefly luciferase, cherry-picked (AID 624132); type: functional;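 further: firefly luciferase luminescence from reporter carrying the Shn3 3'UTR in osteoblasts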
[18] = system: BJ; test: cytotoxicity toward BJ-TERT-LT-ST fibroblasts, dose response, cell-based, RAS-independent, luminescence (AID 1935); type: functional; conditions: Homo sapiens;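 further: BJ fibroblasts immortalized with TERT plus LT and ST oncogenes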
[19] = Luminescence Cell-Based Dose Response HTS to Identify Inhibitors of 5'UTR Stem-Loop Driven Prion Protein mRNA Translation in H4 Neuroglioblastoma Cells. [Related pubchem assays: 1827 (Project Summary), 1813 (Primary HTS)]; type: functional
[20] = biological target: T3, Fatty acid synthase (Homo sapiens, UniProt P49327); test: FAS thioesterase domain inhibitors, dose response, biochemical, endpoint fluorescence intensity, uHTS hits (AID 624327); type: functional;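 further: fluorescence from hydrolysis of an O-methyl fluorescein acyl ester substrate by the enzyme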
T3 sequence (P49327 whole entry, the tested form may be a part): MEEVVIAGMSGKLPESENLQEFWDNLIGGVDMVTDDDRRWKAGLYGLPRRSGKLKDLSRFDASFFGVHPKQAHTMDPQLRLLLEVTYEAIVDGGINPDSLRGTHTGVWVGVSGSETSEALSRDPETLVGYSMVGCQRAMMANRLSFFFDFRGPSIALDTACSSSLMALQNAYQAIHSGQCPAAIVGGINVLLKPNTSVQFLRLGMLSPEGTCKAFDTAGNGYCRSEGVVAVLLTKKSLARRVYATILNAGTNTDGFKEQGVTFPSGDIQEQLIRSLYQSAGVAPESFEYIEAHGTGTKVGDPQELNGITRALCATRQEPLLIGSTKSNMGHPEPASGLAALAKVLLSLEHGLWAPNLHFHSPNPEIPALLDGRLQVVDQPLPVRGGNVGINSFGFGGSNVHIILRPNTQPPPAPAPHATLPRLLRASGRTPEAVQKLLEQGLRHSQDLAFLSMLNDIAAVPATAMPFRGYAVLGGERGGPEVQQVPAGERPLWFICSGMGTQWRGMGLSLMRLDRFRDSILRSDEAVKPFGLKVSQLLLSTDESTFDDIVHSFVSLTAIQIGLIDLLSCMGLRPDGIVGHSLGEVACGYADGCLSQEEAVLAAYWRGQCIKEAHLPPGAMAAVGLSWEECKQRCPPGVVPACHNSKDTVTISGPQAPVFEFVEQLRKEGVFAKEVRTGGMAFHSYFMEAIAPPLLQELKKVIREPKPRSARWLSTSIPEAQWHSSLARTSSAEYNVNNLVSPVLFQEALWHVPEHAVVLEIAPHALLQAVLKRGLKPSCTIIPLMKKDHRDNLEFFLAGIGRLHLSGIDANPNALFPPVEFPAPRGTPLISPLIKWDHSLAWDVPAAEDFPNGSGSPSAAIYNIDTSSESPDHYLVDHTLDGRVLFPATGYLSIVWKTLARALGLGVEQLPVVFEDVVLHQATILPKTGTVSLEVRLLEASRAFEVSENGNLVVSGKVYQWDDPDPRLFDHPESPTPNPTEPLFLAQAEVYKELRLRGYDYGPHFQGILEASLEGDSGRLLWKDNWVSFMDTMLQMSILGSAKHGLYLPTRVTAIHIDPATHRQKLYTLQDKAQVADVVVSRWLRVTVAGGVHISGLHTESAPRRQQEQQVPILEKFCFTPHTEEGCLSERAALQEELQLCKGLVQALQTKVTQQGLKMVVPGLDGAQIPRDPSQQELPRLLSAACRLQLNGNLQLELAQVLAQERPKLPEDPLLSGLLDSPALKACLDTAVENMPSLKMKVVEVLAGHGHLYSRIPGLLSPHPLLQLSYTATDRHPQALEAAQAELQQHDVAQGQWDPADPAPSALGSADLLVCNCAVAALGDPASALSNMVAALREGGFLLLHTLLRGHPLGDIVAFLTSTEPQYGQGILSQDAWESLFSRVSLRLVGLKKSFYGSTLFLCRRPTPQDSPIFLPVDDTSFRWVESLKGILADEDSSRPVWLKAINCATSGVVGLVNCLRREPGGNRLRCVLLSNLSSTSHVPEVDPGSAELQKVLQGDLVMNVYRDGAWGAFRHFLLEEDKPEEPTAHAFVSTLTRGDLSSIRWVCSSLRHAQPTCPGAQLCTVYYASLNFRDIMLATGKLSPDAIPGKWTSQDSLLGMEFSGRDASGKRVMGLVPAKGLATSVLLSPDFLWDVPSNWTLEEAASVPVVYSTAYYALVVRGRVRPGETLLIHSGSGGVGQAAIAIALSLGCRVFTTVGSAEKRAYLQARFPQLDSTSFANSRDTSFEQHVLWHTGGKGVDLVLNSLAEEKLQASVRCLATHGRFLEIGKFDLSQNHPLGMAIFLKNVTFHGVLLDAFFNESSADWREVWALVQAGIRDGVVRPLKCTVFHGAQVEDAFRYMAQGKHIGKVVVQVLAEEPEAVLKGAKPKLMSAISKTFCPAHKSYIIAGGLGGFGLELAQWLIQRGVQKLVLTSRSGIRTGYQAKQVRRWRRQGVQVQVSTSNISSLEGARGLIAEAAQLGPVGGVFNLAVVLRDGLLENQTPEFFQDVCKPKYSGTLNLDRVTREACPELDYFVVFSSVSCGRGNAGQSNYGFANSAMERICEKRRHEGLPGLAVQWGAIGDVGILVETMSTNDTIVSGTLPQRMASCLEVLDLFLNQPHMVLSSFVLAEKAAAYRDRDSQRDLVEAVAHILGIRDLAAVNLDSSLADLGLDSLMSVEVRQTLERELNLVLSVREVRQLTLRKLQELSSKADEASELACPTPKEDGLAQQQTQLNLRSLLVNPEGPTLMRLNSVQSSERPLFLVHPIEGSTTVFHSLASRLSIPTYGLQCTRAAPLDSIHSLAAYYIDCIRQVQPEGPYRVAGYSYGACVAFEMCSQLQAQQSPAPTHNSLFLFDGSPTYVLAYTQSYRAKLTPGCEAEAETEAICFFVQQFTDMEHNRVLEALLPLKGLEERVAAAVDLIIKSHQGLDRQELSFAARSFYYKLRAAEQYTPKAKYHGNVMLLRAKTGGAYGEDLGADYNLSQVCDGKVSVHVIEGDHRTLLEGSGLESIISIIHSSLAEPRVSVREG

[21] = system: BJ; test: cytotoxicity toward BJ-TERT fibroblasts, dose response, cell-based, RAS-independent, luminescence (AID 1933); type: functional; conditions: Homo sapiens
[22] = system: BJ; test: cytotoxicity toward Ras-transformed BJeLR fibroblasts, dose response, cell-based, alamar blue fluorescence, cherrypicked samples (AID 2631); type: functional; conditions: Homo sapiens;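 further: confirmatory dose-response assay in RAS-dependent BJ fibroblasts engineered with TERT, LT and ST, with cytotoxicity read by fluorescence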
[23] = cytotoxicity toward DRD oncogenic fibroblasts, dose response, cell-based, non-viral oncogenic, luminescence (AID 1934); type: functional; conditions: Homo sapiens
[24] = inhibitors of SNCA 5'UTR-driven reporter translation, confirmation, H4 neuroglioma cells, luminescence (AID 1988); type: functional, cell-based
[25] = system: BJ; test: cells; type: functional, cell-based; conditions: Homo sapiens
[26] = inhibitors of firefly luciferase expression or activity, dose response, H4 neuroglioma cells, luminescence (AID 1990); type: functional, cell-based
[27] = biological target: Voltage-dependent T-type calcium channel subunit alpha-1H (Homo sapiens, UniProt O95180); type: functional;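 further: channel activity triggered by adding a high calcium stimulation buffer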
[28] = biological target: T3, Fatty acid synthase; test: FAS thioesterase domain inhibitors, dose response, biochemical, kinetic fluorescence intensity (AID 624326); type: functional;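 further: rate of fluorescence rise from hydrolysis of a fluorogenic O-methyl fluorescein ester substrate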
[29] = system: Vero; test: cells; type: functional; conditions: Chlorocebus sabaeus
[30] = system: Vero; test: cells; type: functional, cell-based; conditions: Chlorocebus sabaeus
[31] = biological target: T4, Ubiquitin-conjugating enzyme E2 N (Homo sapiens, UniProt P61088); type: functional;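 further: Dose-response confirmation in a TR-FRET assay detecting UBC13-driven polyubiquitin chain formation, inhibition measured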
T4 sequence (P61088 whole entry): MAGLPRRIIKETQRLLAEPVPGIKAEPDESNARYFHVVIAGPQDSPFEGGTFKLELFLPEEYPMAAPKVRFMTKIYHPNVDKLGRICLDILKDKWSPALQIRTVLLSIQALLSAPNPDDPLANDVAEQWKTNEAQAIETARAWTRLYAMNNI

[32] = Concentration-dependent survival of SW480 colon cancer line, luminescence detection with CellTiter-Glo, half-maximal inhibitory concentration (AID 1117338); type: functional
[33] = RKO cell viability reduction, dose response, CellTiter-Glo luminescence (AID 1117322); type: functional
[34] = cytotoxicity toward HT-29 cells – cell-based, CellTiter-Glo luminescence, IC50, dose response (AID 1117330); type: functional
[35] = CellTiter-Glo luminescent dose response of DLD-1 viability loss (AID 1117352); type: functional
[36] = SNU-C1 cell viability reduction, dose response, CellTiter-Glo luminescence (AID 1117323); type: functional, cell-based
[37] = cytotoxicity toward Colo320 cells – cell-based, CellTiter-Glo luminescence, IC50, dose response (AID 1117334); type: functional; conditions: COLO 320
[38] = cytotoxicity toward HCT116 cells – cell-based, CellTiter-Glo luminescence, IC50, dose response (AID 1117332); type: functional; conditions: HCT-116
[39] = HCT116 cell viability decrease, GSK3B pretreatment – CellTiter-Glo, IC50, dose response (AID 1117339); type: functional; conditions: HCT-116
[40] = system: HT-1080; test: cytotoxicity in HT1080 fibrosarcoma cells, cell-based, fluorescence readout (AID 620); type: functional; conditions: Homo sapiens
[41] = system: Jurkat; test: antigen receptor-induced NF-kB inhibitors, dose response, Jurkat, luciferase reporter, luminescence, B- and T-cell (AID 489004); type: functional, cell-based; conditions: Homo sapiens;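 further: NF-kB luciferase reporter Jurkat cells stimulated with PMA plus ionomycin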
[42] = cytotoxicity in HEK-293T NF-kB-Luc cells, dose response, cytotoxicity control for B/T-cell NF-kB inhibitor project, cell-based, uHTS hits (AID 489019); type: functional;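 further: IC50 reflects cytotoxicity as loss of cell viability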
[43] = biological target: Prothrombin (Bos taurus, UniProt P00735); test: thrombin inhibition, dose response, biochemical, fluorescence polarization, uHTS hits (AID 602369); type: functional
[44] = biological target: 26S proteasome non-ATPase regulatory subunit 14 (Homo sapiens, UniProt O00487); test: inhibition of proteasome subunit RPN11 – biochemical, fluorescence polarization, uHTS hits, confirmation (AID 602368); type: functional
26S proteasome non-ATPase regulatory subunit 14, sequence (O00487 whole entry): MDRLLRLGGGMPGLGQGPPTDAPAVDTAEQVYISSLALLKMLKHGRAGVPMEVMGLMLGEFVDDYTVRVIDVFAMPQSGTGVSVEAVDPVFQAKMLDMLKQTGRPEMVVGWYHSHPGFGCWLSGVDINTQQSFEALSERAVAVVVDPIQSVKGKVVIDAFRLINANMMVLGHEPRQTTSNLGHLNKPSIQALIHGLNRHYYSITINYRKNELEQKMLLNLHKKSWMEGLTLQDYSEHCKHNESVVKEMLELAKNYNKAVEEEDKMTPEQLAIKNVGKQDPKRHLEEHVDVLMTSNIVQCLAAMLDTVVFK

[45] = biological target: 72 kDa type IV collagenase (Homo sapiens, UniProt P08253); test: Dose Response validation of uHTS RPN11 inhibitor hits using a MMP-2 Fluorescence assay.; type: functional
72 kDa type IV collagenase, sequence (P08253 whole entry): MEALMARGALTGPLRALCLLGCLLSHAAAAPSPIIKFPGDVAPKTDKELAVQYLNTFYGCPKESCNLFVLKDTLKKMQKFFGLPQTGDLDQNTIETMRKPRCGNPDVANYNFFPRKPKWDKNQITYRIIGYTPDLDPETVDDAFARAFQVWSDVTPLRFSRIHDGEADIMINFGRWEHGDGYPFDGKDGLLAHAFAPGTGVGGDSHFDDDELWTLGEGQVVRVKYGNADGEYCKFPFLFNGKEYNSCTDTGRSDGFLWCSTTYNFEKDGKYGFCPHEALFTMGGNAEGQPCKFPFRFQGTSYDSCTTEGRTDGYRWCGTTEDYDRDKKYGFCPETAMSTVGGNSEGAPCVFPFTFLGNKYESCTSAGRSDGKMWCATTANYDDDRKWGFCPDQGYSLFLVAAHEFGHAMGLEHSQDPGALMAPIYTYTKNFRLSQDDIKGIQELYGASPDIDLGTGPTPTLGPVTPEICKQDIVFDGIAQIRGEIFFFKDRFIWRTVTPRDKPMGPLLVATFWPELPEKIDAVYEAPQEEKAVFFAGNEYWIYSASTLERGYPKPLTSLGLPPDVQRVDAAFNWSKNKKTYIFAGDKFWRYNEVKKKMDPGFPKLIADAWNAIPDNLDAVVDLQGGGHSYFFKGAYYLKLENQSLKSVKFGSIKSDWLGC

CC1CN(C2=C(Cl)C(=O)N(c3ccc(Cl)c(Cl)c3)C2=O)CCN1c1ccccc1 (stereo unspecified)
IC50 [1]: 19.3 µM (active) | IC50 [2]: > 100 µM (not active) | IC50 [3]: > 100 µM (not active)

Cc1cc(C(F)F)n2ncc(C(=O)NCc3ccccc3C(F)(F)F)c2n1
AC50 [4]: 0.708 µM (inconclusive) | IC50 [5]: 26.2 µM (not active) | AC50 [6]: 6.31 µM (inconclusive)

CCOC(=O)c1csc(-c2ccc3c(c2)CCO3)n1
EC50 [7]: > 12 µM (not active) | EC50 [8]: < 0.1 µM (active) | EC50 [9]: > 12 µM (not active) | EC50 [10]: > 12 µM (not active) | EC50 [11]: 0.552 µM (active) | EC50 [12]: 0.127 µM (active)

COc1ccccc1S(=O)(=O)N(C)C[C@@H]1OCc2ccccc2-c2ccccc2C(=O)N([C@H](C)CO)C[C@@H]1C
AC50 [13]: 4.71 µM (active)

CCn1cc(C(=O)NCc2ccco2)c(=O)c2cc(S(=O)(=O)N3CC(C)CC(C)C3)ccc21 (stereo unspecified)
AC50 [14]: 1.67 µM (active) | CC50 [15]: 32.1 µM (active) | AC50 [16]: 4.32 µM (active) | AC50 [17]: 0.778 µM (active) | EC50 [18]: > 150 µM (inconclusive) | EC50 [19]: 0.503 µM (active) | IC50 [20]: 4.25 µM (active) | EC50 [21]: > 150 µM (not active) | EC50 [22]: > 133 µM (inactive) | EC50 [23]: 7.64 µM (active) | EC50 [24]: 10.9 µM (active) | EC50 [25]: 5.24 µM (active) | EC50 [26]: 9.5 µM (active) | EC50 [27]: 2.49 µM (active) | IC50 [28]: 4.14 µM (active)

COc1ccc(CCNC(=O)/C=C/c2ccc3ccccc3n2)cc1OC
CC50 [15]: 12 µM (active) | CC50 [29]: 16.4 µM (active) | IC50 [30]: > 25 µM (active)

C[C@@H]1CN([C@@H](C)CO)C(=O)c2cc(NC(=O)Nc3ccc4c(c3)OCO4)ccc2O[C@@H](C)CCCCO[C@H]1CN(C)S(=O)(=O)c1ccccc1
AC50 [13]: 4.34 µM (active)

CCOC(=O)CSc1nc2ccccc2c(=O)n1CCCCCC(=O)NCc1ccco1
IC50 [31]: > 20 µM (inactive) | IC50 [5]: 43.3 µM (not active)

O=C1c2ccccc2C(=O)C1C(=O)C(c1ccccc1)c1ccccc1 [DIPHENADIONE]
IC50 [32]: 0.536 µM (active) | IC50 [33]: 1.59 µM (active) | IC50 [34]: 4.48 µM (active) | IC50 [35]: 1.33 µM (active) | IC50 [36]: 4.01 µM (active) | IC50 [37]: 0.621 µM (active) | IC50 [38]: 0.531 µM (active) | IC50 [39]: 0.567 µM (active)

Cc1ccc(C(=O)c2cc(O)c(O)c([N+](=O)[O-])c2)cc1 [TOLCAPONE]
IC50 [32]: 4.64 µM (active) | IC50 [33]: 1.88 µM (active) | IC50 [34]: > 20 µM (inactive) | IC50 [35]: 6.14 µM (inactive) | IC50 [36]: 4.54 µM (active) | IC50 [37]: 2.5 µM (active) | IC50 [38]: 2.29 µM (active) | IC50 [39]: 0.265 µM (active)

N#Cc1c(NC(=O)CSc2nc[nH]n2)sc2c1CCCC2
EC50 [40]: > 50 µM (not active) | IC50 [41]: 0.64 µM (active) | IC50 [42]: > 80 µM (inactive)

COC(=O)c1c(-c2cccnc2)csc1NC(=O)c1cc(C)on1
IC50 [43]: 48.3 µM (active) | EC50 [7]: 0.321 µM (active) | EC50 [8]: < 0.1 µM (inconclusive) | EC50 [9]: 0.387 µM (active) | IC50 [44]: 29.6 µM (active) | EC50 [10]: 0.435 µM (active) | EC50 [11]: 19.9 µM (inconclusive) | IC50 [45]: > 100 µM (inactive)
